US20130034597A1, “ORALLY BIOAVAILABLE PEPTIDE DRUG COMPOSITIONS AND METHODS THEREOF” (AEGIS THERAPEUTICS LLC, priority 2011, published 2013)
Positions of bridges follow the written chain, without caps; N, C: chain ends. Non-standard residues stand in square brackets, D forms with d. Residues, ends and D or L forms follow the SMILES beside them. d2Nal = N[C@H](Cc1ccc2ccccc2c1)C(=O)O

How the values were obtained:
[1] = target: somatostatin receptor (SSTR) subtype 2 (Homo sapiens, UniProt P30874); details: cited from earlier work
[2] = intranasal delivery; cited from earlier work
[3] = Clinical signs during the TEEE pharmacokinetic study; type: in vivo, Male Sprague-Dawley rats; details: oral (2.5-10 mg/kg capsules) or intravenous (0.1, 1 mg/kg) administration, rats
From the text: Male Sprague-Dawley rats are ca 8-9 week old at onset of treatment (weight at onset of treatment, 348-398 g). Animals are allocated into groups of 3 rats/group. Immediately following arrival, animals are uniquely identified via an eartag. Animals are purchased from Charles River Canada (St-Constant, Canada). Following an examination by a qualified In-Life Specialist (including body weight determination), animals are acclimated to the testing facilities for ca 72 hr prior to test article administration. Room conditions are: temperature ca 20° C., humidity ca 50%. Animals are housed in solid bottom polycarbonate cages equipped with a filter top to avoid contamination, fed with standard certified rodent food (brand and lot no. to be documented in the raw data). The animals had continuous access to RO/UV water, via bottles. All rats are administered the compounds intravenously (Groups 1 and 2) in a jugular vein under light isoflurane anesthesia or orally by capsule (one per animal) using a specially designed capsule delivery tube (Groups 3-14). The dose volume is 5.0 ml/kg for groups 1 and 2 and one capsule/animal for Groups 3 to 14. Prior to dosing, each animal is weighed and the weight recorded. […] Plasma concentrations of each compound are determined using an LCMS assay (non-GLP) with an analytical range of ca 25-1000 ng/mL. […]

[4] = Maximum water solubility of TEEE; type: physicochemical
Method: The compound described is a selective IL-23 receptor antagonist peptide comprising D-amino acids with the formula cyclo-D-[…] (SEQ ID NO: 3), where any amino acid is a D-amino acid, MW: ca. 1039, hereafter designated TEEE, supplied by Allostera Pharma as a dry powder, and is formulated for intravenous at 0.02 and 0.2 mg/mL in sterile saline by dilution of an initial stock prepared at 2 mg/mL. Additionally, 4 different formulations of dry TEEE are prepared in gelatin capsules. For each type of dry formulation 10 capsules are prepared to contain enough test article in a way to deliver ca 2.5, 5.0 or 10 mg/kg. […] Solutions and capsules are stored at ca 4° C. upon until dose administration. The intravenous formulation is kept at room temperature pending dose administration. The final appearance of the intravenous formulations consists of clear solutions.

Sequence of somatostatin receptor (SSTR) subtype 2 (P30874 whole entry): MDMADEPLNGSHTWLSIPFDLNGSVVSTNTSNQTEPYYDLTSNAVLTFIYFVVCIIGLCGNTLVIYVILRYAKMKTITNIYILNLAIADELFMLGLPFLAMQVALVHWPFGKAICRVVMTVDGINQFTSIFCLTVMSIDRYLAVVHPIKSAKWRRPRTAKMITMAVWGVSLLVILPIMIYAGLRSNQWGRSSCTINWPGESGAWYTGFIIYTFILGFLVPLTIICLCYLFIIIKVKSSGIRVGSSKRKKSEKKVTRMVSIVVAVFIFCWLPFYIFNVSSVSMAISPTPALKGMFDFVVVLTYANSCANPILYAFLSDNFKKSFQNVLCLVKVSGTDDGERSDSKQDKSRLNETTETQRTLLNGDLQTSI

## CC(C)[C@@H]1NC(=O)[C@H](CCCCN)NC(=O)[C@@H](Cc2c[nH]c3ccccc23)NC(=O)[C@H](Cc2ccc(O)cc2)NC(=O)[C@H](NC(=O)[C@H](N)Cc2ccc3ccccc3c2)CSSC[C@H](C(=O)N[C@H](C(N)=O)[C@@H](C)O)NC1=O [lanreotide, (4S,7S,10S,13R,16S,19S)-10-(4-aminobutyl)-19-[[(2R)-2-amino-3-naphthalen-2-yl-propanoyl]amino]-N-[(1S,2R)-1-carbamoyl-2-hydroxy-propyl]-16-[(4-hydroxyphenyl)methyl]-13-(1H-indol-3-ylmethyl)-6,9,12,15,18-pentaoxo-7-propan-2-yl-1,2-dithia-5,8,11,14,17-pentazacycloicosane-4-carboxamide] (H-[d2Nal][dC]Y[dW]KV[dC]T-NH2; disulfide 2-7)
[1]
  binding affinity: high

## calcitonin
[2]
  average bioavailability: about 3%

## cyclo-D-TEEEQQYL (cyclo([dT][dE][dE][dE][dQ][dQ][dY][dL]); SMILES CC(C)C[C@H]1NC(=O)[C@@H](Cc2ccc(O)cc2)NC(=O)[C@@H](CCC(N)=O)NC(=O)[C@@H](CCC(N)=O)NC(=O)[C@@H](CCC(=O)O)NC(=O)[C@@H](CCC(=O)O)NC(=O)[C@@H](CCC(=O)O)NC(=O)[C@@H]([C@H](C)O)NC1=O)
[3]
  clinical signs: No clinical signs
[4]
  maximum water solubility: approximately 10 mg/mL
